# Results taken from ChEMBL document CHEMBL4411306, “High-throughput screening of novel pyruvate dehydrogenase kinases inhibitors and biological evaluation of their in vitro and in vivo antiproliferative activity” (Eur J Med Chem, 2019).
# Activity calls are given as the source filed them. The rule behind the calls is not given here.
# Assays:
# [1] = molecular target: T1, [Pyruvate dehydrogenase (acetyl-transferring)] kinase isozyme 1, mitochondrial (Homo sapiens, UniProt Q15118); assay: Inhibition of PDK1 in human NCI-H1975 cells assessed as switch of pyruvate metabolism from lactate production to oxidative phosphorylation by measuring increase in oxygen consumption rates at 1 to 10 uM measured after 4 hrs by XFe24 extracellular flux analyzer based assay; format: cell-based
# T1 sequence (Q15118 whole entry): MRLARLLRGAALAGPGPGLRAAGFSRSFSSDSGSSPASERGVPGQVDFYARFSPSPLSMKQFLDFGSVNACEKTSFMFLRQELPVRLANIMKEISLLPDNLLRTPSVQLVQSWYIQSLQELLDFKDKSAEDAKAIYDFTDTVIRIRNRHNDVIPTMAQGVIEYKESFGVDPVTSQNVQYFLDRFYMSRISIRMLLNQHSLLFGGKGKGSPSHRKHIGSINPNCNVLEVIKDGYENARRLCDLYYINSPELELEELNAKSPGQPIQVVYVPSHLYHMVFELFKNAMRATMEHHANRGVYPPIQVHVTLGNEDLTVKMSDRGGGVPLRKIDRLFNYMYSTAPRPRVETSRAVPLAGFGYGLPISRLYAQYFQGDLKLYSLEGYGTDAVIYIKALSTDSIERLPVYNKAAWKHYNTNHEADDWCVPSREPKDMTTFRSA
# [2] = system: NCI-H1975; assay: Induction of apoptosis in human NCI-H1975 cells after 12 hrs by Annexin V-FITC/propidium iodide staining based flow cytometry; format: functional, cell-based
# [3] = system: NCI-H1975; assay: Induction of apoptosis in human NCI-H1975 cells assessed as live cells at 0.5 uM after 12 hrs by Annexin V-FITC/propidium iodide staining based flow cytometry (reference value: 92.7%); format: functional
# [4] = Permeability across human Caco2 cells by liquid scintillation counting method; format: ADME, cell-based; settings: caco-2
# [5] = system: HepG2; assay: Antiproliferative activity against human HepG2 cells assessed as reduction in cell viability after 72 hrs by MTT assay; format: functional
# [6] = system: NCI-H1975; assay: Induction of apoptosis in human NCI-H1975 cells assessed as early apoptotic cells at 4 uM after 12 hrs by Annexin V-FITC/propidium iodide staining based flow cytometry (reference value: 1.8%); format: functional
# [7] = molecular target: T1, [Pyruvate dehydrogenase (acetyl-transferring)] kinase isozyme 1, mitochondrial; assay: Inhibition of PDK1 in human NCI-H1975 cells assessed as switch of pyruvate metabolism from lactate production to oxidative phosphorylation by measuring increase in ROS production at high concentration after 4 hrs by DCFH-DA dye based assay; format: cell-based
# [8] = system: A549; assay: Antiproliferative activity against human A549 cells assessed as reduction in cell viability after 72 hrs by MTT assay; format: functional
# [9] = system: NCI-H1975; assay: Antitumor activity against human NCI-H1975 cells xenografted in nude mouse assessed as reduction in tumor weight administered orally once daily for 21 days; format: functional, cell-based
# [10] = system: NCI-H1975; assay: Antitumor activity against human NCI-H1975 cells xenografted in nude mouse assessed as tumor growth inhibition administered orally once daily for 21 days; format: functional, cell-based
# [11] = molecular target: [Pyruvate dehydrogenase (acetyl-transferring)] kinase isozyme 4, mitochondrial (Homo sapiens, UniProt Q16654); assay: Inhibition of recombinant human His-tagged PDK4 expressed in Escherichia coli using PDH E1 as substrate measured after 30 mins by Kinase-Glo luminescence assay
# [Pyruvate dehydrogenase (acetyl-transferring)] kinase isozyme 4, mitochondrial, sequence (Q16654 whole entry): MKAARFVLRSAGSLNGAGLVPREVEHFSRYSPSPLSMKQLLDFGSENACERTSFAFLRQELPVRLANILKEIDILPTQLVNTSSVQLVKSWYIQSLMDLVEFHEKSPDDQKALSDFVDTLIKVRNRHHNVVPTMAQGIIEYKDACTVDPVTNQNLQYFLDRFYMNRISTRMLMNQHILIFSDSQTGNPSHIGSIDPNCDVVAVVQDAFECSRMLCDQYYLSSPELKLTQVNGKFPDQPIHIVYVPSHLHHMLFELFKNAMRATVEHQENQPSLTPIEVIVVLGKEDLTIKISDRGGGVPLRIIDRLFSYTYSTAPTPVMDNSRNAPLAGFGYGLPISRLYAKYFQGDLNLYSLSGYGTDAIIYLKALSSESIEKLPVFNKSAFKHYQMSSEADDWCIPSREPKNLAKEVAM
# [12] = system: NCI-H1975; assay: Induction of apoptosis in human NCI-H1975 cells assessed as early apoptotic cells at 10 uM after 12 hrs by Annexin V-FITC/propidium iodide staining based flow cytometry (reference value: 1.8%); format: functional
# [13] = system: NCI-H1975; assay: Induction of apoptosis in human NCI-H1975 cells assessed as necrotic cells at 2 uM after 12 hrs by Annexin V-FITC/propidium iodide staining based flow cytometry (reference value: 1.8%); format: functional
# [14] = molecular target: T2, [Pyruvate dehydrogenase (acetyl-transferring)] kinase isozyme 2, mitochondrial (Homo sapiens, UniProt Q15119); assay: Inhibition of recombinant human His-tagged PDK2 expressed in Escherichia coli using PDH E1 as substrate measured after 30 mins by Kinase-Glo luminescence assay
# [15] = Inhibition of porcine PDK assessed as activation of pyruvate dehydrogenase complex measured after 3 mins; set-up: species or system Sus scrofa
# [16] = system: NCI-H1650; assay: Antiproliferative activity against human NCI-H1650 cells assessed as reduction in cell viability after 72 hrs by MTT assay; format: functional
# [17] = system: NCI-H1975; assay: Induction of apoptosis in human NCI-H1975 cells assessed as necrotic cells at 0.5 uM after 12 hrs by Annexin V-FITC/propidium iodide staining based flow cytometry (reference value: 1.8%); format: functional
# [18] = system: NCI-H1975; assay: Inhibition of PDK in human NCI-H1975 cells assessed as reduction in PDH phosphorylation at 10 uM after 12 hrs by Western blot analysis; format: cell-based
# [19] = system: NCI-H1975; assay: Induction of apoptosis in human NCI-H1975 cells assessed as late apoptotic cells at 4 uM after 12 hrs by Annexin V-FITC/propidium iodide staining based flow cytometry (reference value: 3.7%); format: functional
# [20] = system: NCI-H1975; assay: Induction of apoptosis in human NCI-H1975 cells assessed as live cells at 2 uM after 12 hrs by Annexin V-FITC/propidium iodide staining based flow cytometry (reference value: 92.7%); format: functional
# [21] = molecular target: Heat shock protein HSP90 (Homo sapiens, UniProt P07900+P08238); assay: Inhibition of human HSP90 measured after 30 mins by fluorescence polarization assay; format: protein assay
# [22] = system: Mus musculus; assay: In-vivo of inhibition of PDH phosphorylation in tumor of nude mouse xenografted with human NCI-H1975 cells at 10 to 20 mg/kg, po administered once daily for 21 days measured post last dose by Western blot analysis; format: functional, organism-based
# [23] = Antiproliferative activity against human BEAS2B cells assessed as reduction in cell viability after 72 hrs by MTT assay; format: cell-based; settings: BEAS-2B cells, read-out: GC50
# [24] = molecular target: T1, [Pyruvate dehydrogenase (acetyl-transferring)] kinase isozyme 1, mitochondrial; assay: Binding affinity to recombinant human His-tagged PDK1 expressed in Escherichia coli by isothermal calorimetry
# [25] = system: NCI-H1975; assay: Induction of apoptosis in human NCI-H1975 cells assessed as late apoptotic cells at 2 uM after 12 hrs by Annexin V-FITC/propidium iodide staining based flow cytometry (reference value: 3.7%); format: functional
# [26] = system: NCI-H1975; assay: Induction of apoptosis in human NCI-H1975 cells assessed as early apoptotic cells at 0.5 uM after 12 hrs by Annexin V-FITC/propidium iodide staining based flow cytometry (reference value: 1.8%); format: functional
# [27] = molecular target: T1, [Pyruvate dehydrogenase (acetyl-transferring)] kinase isozyme 1, mitochondrial; assay: Inhibition of PDK1 in human NCI-H1975 cells assessed as switch of pyruvate metabolism from lactate production to oxidative phosphorylation by measuring by measuring reduction in lactate formation at 10 uM measured after 4 hrs; format: cell-based
# [28] = system: NCI-H1975; assay: Induction of apoptosis in human NCI-H1975 cells assessed as live cells at 10 uM after 12 hrs by Annexin V-FITC/propidium iodide staining based flow cytometry (reference value: 92.7%); format: functional
# [29] = system: NCI-H1975; assay: Induction of apoptosis in human NCI-H1975 cells assessed as necrotic cells at 10 uM after 12 hrs by Annexin V-FITC/propidium iodide staining based flow cytometry (reference value: 1.8%); format: functional
# [30] = molecular target: T1, [Pyruvate dehydrogenase (acetyl-transferring)] kinase isozyme 1, mitochondrial; assay: Inhibition of PDK1 in human NCI-H1975 cells assessed as switch of pyruvate metabolism from lactate production to oxidative phosphorylation by measuring decrease in extracellular acidification rate at 1 to 10 uM measured after 4 hrs by XFe24 extracellular flux analyzer based assay; format: cell-based
# [31] = system: NCI-H1975; assay: Antiproliferative activity against human NCI-H1975 cells assessed as reduction in cell viability after 72 hrs by MTT assay; format: functional
# [32] = molecular target: T1, [Pyruvate dehydrogenase (acetyl-transferring)] kinase isozyme 1, mitochondrial; assay: Inhibition of recombinant human His-tagged PDK1 expressed in Escherichia coli using PDH E1 as substrate measured after 30 mins by Kinase-Glo luminescence assay
# [33] = Toxicity in nude mouse xenografted with human NCI-H1975 cells assessed as effect on body weight at 10 to 20 mg/kg, po administered once daily for 21 days measured twice weekly during compound dosing; format: organism-based; settings: in vivo, 504 h
# [34] = system: HCT-116; assay: Antiproliferative activity against human HCT116 cells assessed as reduction in cell viability after 72 hrs by MTT assay; format: functional
# [35] = system: NCI-H1975; assay: Induction of apoptosis in human NCI-H1975 cells assessed as late apoptotic cells at 0.5 uM after 12 hrs by Annexin V-FITC/propidium iodide staining based flow cytometry (reference value: 3.7%); format: functional
# [36] = system: NCI-H1975; assay: Induction of apoptosis in human NCI-H1975 cells assessed as late apoptotic cells at 10 uM after 12 hrs by Annexin V-FITC/propidium iodide staining based flow cytometry (reference value: 3.7%); format: functional
# [37] = system: NCI-H1975; assay: Induction of apoptosis in human NCI-H1975 cells assessed as necrotic cells at 4 uM after 12 hrs by Annexin V-FITC/propidium iodide staining based flow cytometry (reference value: 1.8%); format: functional
# [38] = system: NCI-H1975; assay: Induction of apoptosis in human NCI-H1975 cells assessed as early apoptotic cells at 2 uM after 12 hrs by Annexin V-FITC/propidium iodide staining based flow cytometry (reference value: 1.8%); format: functional
# [39] = system: MCF7; assay: Antiproliferative activity against human MCF7 cells assessed as reduction in cell viability after 72 hrs by MTT assay; format: functional
# [40] = system: NCI-H1975; assay: Induction of apoptosis in human NCI-H1975 cells assessed as live cells at 4 uM after 12 hrs by Annexin V-FITC/propidium iodide staining based flow cytometry (reference value: 92.7%); format: functional
# [41] = molecular target: [Pyruvate dehydrogenase (acetyl-transferring)] kinase isozyme 3, mitochondrial (Homo sapiens, UniProt Q15120); assay: Inhibition of recombinant human His-tagged PDK3 expressed in Escherichia coli using PDH E1 as substrate measured after 30 mins by Kinase-Glo luminescence assay
# [Pyruvate dehydrogenase (acetyl-transferring)] kinase isozyme 3, mitochondrial, sequence (Q15120 whole entry): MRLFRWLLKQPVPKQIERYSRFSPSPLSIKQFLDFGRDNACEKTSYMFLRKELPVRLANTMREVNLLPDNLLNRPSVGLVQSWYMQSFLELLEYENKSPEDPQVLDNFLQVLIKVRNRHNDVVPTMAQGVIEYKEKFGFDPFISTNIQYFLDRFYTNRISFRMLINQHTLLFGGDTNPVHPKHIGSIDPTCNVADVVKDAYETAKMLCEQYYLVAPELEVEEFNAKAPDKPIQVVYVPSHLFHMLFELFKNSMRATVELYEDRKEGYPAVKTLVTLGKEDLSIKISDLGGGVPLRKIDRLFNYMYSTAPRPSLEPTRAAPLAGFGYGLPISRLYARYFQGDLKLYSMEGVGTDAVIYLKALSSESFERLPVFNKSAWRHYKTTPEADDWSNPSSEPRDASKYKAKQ
# [42] = system: A-375; assay: Antiproliferative activity against human A375 cells assessed as reduction in cell viability after 72 hrs by MTT assay; format: functional
# [43] = molecular target: T2, [Pyruvate dehydrogenase (acetyl-transferring)] kinase isozyme 2, mitochondrial; assay: Inhibition of recombinant human His6-tagged N-terminal PDHK2 (A8 to T399 residues) expressed in baculovirus expression system using PDC as substrate incubated for 10 mins followed by ATP addition measured at 12 secs interval for 20 mins
smiles,measurement,setting,value
Cc1cccc(NC(=O)CSc2n[nH]c(-c3ccccc3O)n2)c1C,inhibition,[1],Active
same,Activity,[2],Dose-dependent effect
same,Activity,[3],92.3%
same,Papp,[4],8.51 ×10⁻⁶ cm/s
same,Activity,[5],Dose-dependent effect
same,GC50,[5],5200 nM
same,Activity,[6],2.7%
same,inhibition,[7],Active
same,Activity,[8],Dose-dependent effect
same,GC50,[8],7900 nM
same,Activity,[9],Dose-dependent effect
same,TGI,[10],Dose-dependent effect
same,IC50,[11],2500 nM
same,Activity,[12],13.1%
same,Activity,[13],1.6%
same,IC50,[14],3800 nM
same,EC50,[15],340 nM
same,Activity,[16],Dose-dependent effect
same,GC50,[16],3100 nM
same,Activity,[17],0.9%
same,reduction in PDH phosphorylation (qualitative),[18],Active
same,Activity,[19],10.6%
same,Activity,[20],90.3%
same,IC50,[21],780 nM
same,inhibition,[22],Active
same,GI50 at 72 h,[23],> 20000 nM
same,Kd,[24],870 nM
same,Activity,[25],5%
same,Activity,[26],2%
same,inhibition,[27],Active
same,Activity,[28],73.4%
same,Activity,[29],2.4%
same,inhibition,[30],Active
same,Activity,[31],Dose-dependent effect
same,GC50,[31],2300 nM
same,IC50,[32],290 nM
same,Activity,[33],Non-Toxic
same,Activity,[34],Dose-dependent effect
same,GC50,[34],12700 nM
same,Activity,[35],4.8%
same,Activity,[36],11.1%
same,Activity,[37],1.2%
same,Activity,[38],3.1%
same,Activity,[39],Dose-dependent effect
same,GC50,[39],9500 nM
same,Activity,[40],85.5%
same,IC50,[41],5700 nM
same,Activity,[42],Dose-dependent effect
same,GC50,[42],6400 nM
CC(C)c1ccc(COc2ccc(CC(=O)NCCN)cc2Cl)cc1,IC50,[43],2000 nM
